Measurements as given in patent publication US7767642B2, “Therapeutic peptides for the treatment of metastatic cancer” (Arizona Biomedical Research Commission, priority 2005, dated 2010).
“And” between values parts separate entries of the source, which are not always exact repeats. Equal entries are not always repeated. Where no end group is shown, it is not given here. TAT = Protein Transduction Domain of the HIV protein TAT (trans-activating transcriptional activator protein), a cell-penetrating sequence

Assays:
[1] = test system: MDA-MB-468 breast cancer cells; test: Transwell collagen gel invasion assay, peptides delivered with Bioporter; assay type: cell-based
Procedure: FIG. 1. […] A collagen gel matrix was poured onto the bottom of 8 uM pore sized-transwell inserts (modified Boyden's chamber), then inverted into 20% FBS. Cells were incubated with 100 ng/ml of peptide (with Bioporter reagent to allow for cellular uptake), then added to the top of the Transwell. Cells (serum-free) were allowed to invade into the gel, the gel was removed and invading cells enumerated.
(§1) Peptide treatment and invasion assay: 8 um pore size Transwell inserts (Corning) will be inverted and coated with 90 ul of Type I collagen (rat tail, BD Scientific) gel mixture (2.2% sodium bicarbonate, 10× M199 media), and allowed to solidify for 30 minutes. Wells are then be inverted into DMEM with 20% fetal calf serum and allowed to rehydrate. Peptides are incubated with BioPORTER reagent (Sigma, St. Louis Mo.) for 5 minutes to promote cellular uptake, vortexed, and added to cells in serum-free media (10 ng/ml, 100 ng/ml and […] concentrations will be tested) and placed in the upper chamber of the Transwell. Cells will then be incubated for 2, 4 or 24 hours. Media is removed and gels fixed with 4% paraformaldehyde for 30 minutes and transferred to PBS, pH 7.4. Collagen gels will then either be stained with bizbenzamide for 40 minutes and all cells invaded into a gel enumerated or used in immunofluorescence assays. Invasion of peptide-treated cells are compared to PBS/bioporter treated controls or irrelevant peptide treatment.
To investigate the functional significance of MUC1 expression on breast cancer invasion, we have incubated invasive breast cancer cell lines with MUC1-mimetic peptides designed to the β-catenin interacting domain. We then monitored the effects of peptide treatment on invasion through a filter and into a collagen gel.
We performed initial experiments with these β-catenin-binding site (M2) peptides in MDA-MB-468 cells. […] We observed less than 15 M2 peptide-treated cells invaded into a collagen matrix in a 4 hour period, compared to approximately 125 cells in PBS controls.

[2] = test system: MDA-MB-231 breast cancer cells; test: Invasion assay with TAT-conjugated MUC1-mimetic peptides; assay type: cell-based; conditions: MDA-MB-231, compared to control TAT peptide
Procedure: FIG. 4. Treatment of MDA-MB-231 cells with MEBTAT leads to a 5-fold decrease in cell invasiveness as compared to control TAT peptide in invasion assays.
as §1
We have designed TAT-conjugated MUC1-mimetic peptides for their ability to inhibit the invasion of MDA-MB-231 and MDA-MB-468 invasive breast cancer cell lines. […]

MDA-MB-231 cell line [3] = test: Scid xenograft model Trial 1, i.p. treatment; assay type: in vivo; conditions: for animals with tumor regression / tumor regression in the regressing animal: once daily MWF
Procedure: Trial 1. The MDA-MB-231 cell line was injected (in matrigel) into the mammary fat pad of 24 mice. These mice were then divided into 3 groups and injected once daily, MWF, for 2 weeks.
Group IA was treated (i.p.) with 10 ug/g body weight MEBTAT peptide
Group IB was treated (i.p.) with 20 ug/g body weight MEBTAT peptide
Group IC was treated (i.p.) with 20 ug/g body weight TAT peptide
At the end of 2 weeks, we had 27% tumor regression in 1/7 animals in group IA, 7% tumor regression in 1/7 animals in group IB, and no tumor regression (0/7) in group IC.
All tumors were surgically resected 3 days after final drugging, and the mice were monitored for an additional 10 days. […] This correlates to a 25% increase in overall survival time for the animals taking 20 ug/g body weight of MEBTAT compared to TAT.

MDA-MB-231 cells = test: 96-well invasion assay of MEBTAT and alanine-scanning mutants; assay type: cell-based; conditions: 96-well format, 1 hour treatment, 18 hours invasion
Procedure: The amino acids of the MEB sequence [PYEKVSAGNGGSSLS; SEQ ID NO: 1] were replaced, one amino acid at a time, with alanine. (Note that there are only […] mutants, as one of the parental amino acid residues. was already an alanine). Note also that this experiment was done one time, with 4 replicas at each data point.
A new assay was performed in a 96-well format. While the suppression of invasion is not as robust as that observed in the 24-well format, we still observe a 3-fold suppression of invasion with MEBTAT treatment over TAT or PBS. […] Altering any of the remaining amino acids completely eliminated the effect, indicating a critical role for both the YEKV (EGFR/src binding site) and the SAGNGGSSLS (beta-catenin binding site). Also important is the P (at residue #1) that links MEB to the TAT. The proline could be providing important access of the peptide to MUC1 binding sites.
MDA-MB-231 cells were treated for 1 hour with MEBTAT (M), TAT (T), PBS (P), or alanine scanning mutants of MEBTAT. Cells were treated with Calcein-AM and allowed to invade across an 8-uM Transwell into a Type I collagen gel for 18 hours. Invasion was analyzed by spectrophotometry.

β-catenin = molecular target: T1, β-catenin (Homo sapiens, UniProt P35222); test: β-catenin localization after peptide treatment; assay type: cell-based; conditions: MDA-MB-231 cells treated with peptide
T1 construct: endogenous in cells; host or cells: MDA-MB-231 breast cancer cells
T1 sequence (P35222 1-781): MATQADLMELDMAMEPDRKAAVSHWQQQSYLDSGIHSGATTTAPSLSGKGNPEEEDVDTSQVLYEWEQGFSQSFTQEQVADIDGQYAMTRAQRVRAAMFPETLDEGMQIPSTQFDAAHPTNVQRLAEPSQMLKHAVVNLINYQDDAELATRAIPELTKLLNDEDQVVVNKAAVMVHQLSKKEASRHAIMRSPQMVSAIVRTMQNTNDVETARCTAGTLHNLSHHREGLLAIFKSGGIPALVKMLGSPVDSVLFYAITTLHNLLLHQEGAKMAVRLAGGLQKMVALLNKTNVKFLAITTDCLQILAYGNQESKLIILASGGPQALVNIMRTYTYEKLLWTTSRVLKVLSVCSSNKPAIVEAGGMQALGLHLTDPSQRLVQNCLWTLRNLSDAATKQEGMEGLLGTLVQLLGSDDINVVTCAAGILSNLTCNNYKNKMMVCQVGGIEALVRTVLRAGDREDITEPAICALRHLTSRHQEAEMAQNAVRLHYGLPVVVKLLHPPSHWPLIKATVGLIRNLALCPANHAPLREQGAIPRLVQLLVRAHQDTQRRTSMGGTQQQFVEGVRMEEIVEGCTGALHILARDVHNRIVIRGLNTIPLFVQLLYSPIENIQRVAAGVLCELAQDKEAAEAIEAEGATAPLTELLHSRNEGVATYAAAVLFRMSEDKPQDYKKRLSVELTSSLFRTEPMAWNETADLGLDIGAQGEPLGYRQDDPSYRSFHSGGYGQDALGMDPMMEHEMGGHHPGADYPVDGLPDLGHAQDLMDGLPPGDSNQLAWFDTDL
Procedure: Immunofluorescence: Cells undergoing invasion through collagen gels are immunofluorescently labeled in situ (while in the collagen gel). For immunofluorescence on collagen gels, gels are permeabilized with 0.5% Triton X-100 in 10 mM Pipes (pH 6.8), 50 mM NaCl, 300 mM sucrose and 3 mM MgCl2 for 5 minutes at room temperature. Gels are blocked with 3% BSA (Sigma), 0.05% Tween 20, in a 1:1 solution of PBS and Enhancing Wash Buffer (Innovex). Primary antibodies are incubated overnight at 4° C., and gels washed for 6 hours in 1:1 PBS: Enhancing Wash Buffer. Secondary antibodies are incubated overnight at 4° C., and washed again for 6 hours at room temperature. Gels are then mounted, coverslipped and analyzed using a Zeiss laser scanning confocal microscope. The following antibodies are used: anti-biotin (streptavidin-Alexa594, 1:500, Molecular Probes), anti-Muc1 (1:100, Santa Cruz), anti-vinculin (V9131, 1:400, Sigma Chemical Company) anti-β-catenin (H-102, 1:100, Santa Cruz Biochemical), anti-fascin (FCN01, 1:50, Neomarkers), and phalloidin-Alexa546 (1:100, Molecular Probes). Secondary antibodies can be either Alexa 488 or 546 from Molecular Probes.

MDA-MB-231 cell line [4] = test: Scid xenograft model Trial II, i.v. treatment; assay type: in vivo; conditions: 20 ug/g body weight i.v.
Procedure: Trial II: The MDA-MB-231 cell line was injected (in matrigel) into the mammary fat pad of 16 mice. These mice were then divided into 2 groups and injected once daily, MTWThF, for 2 weeks.
Group IIA was treated (i.v.) with 20 ug/g body weight MEBTAT peptide
Group IIB was treated (i.v.) with 20 ug/g body weight TAT peptide
All animals were sacrificed and analyzed for metastases.

[5] = test system: MDA-MB-231 and MDA-MB-468 invasive breast cancer cell lines; test: Invasion assay with TAT-conjugated MUC1-mimetic peptides, cell line not given; assay type: cell-based; conditions: TAT-conjugated peptide
Procedure: as §1
We have designed TAT-conjugated MUC1-mimetic peptides for their ability to inhibit the invasion of MDA-MB-231 and MDA-MB-468 invasive breast cancer cell lines.
Peptides were designed to carry the TAT transduction domain for entry into cells. The following peptides were designed, produced and tested: […]

[6] = 10 ug/g body weight i.p., end of 2 weeks
[7] = 20 ug/g body weight i.p., end of 2 weeks

**Q.** “M2: MUC1-β-catenin binding domain mimetic peptide, SEQ ID NO: 7 (SAGNGGSSLSY; listed as Homo sapiens)” was tested. Which “cells invaded into a collagen matrix” value ([1]; 4 hour period, approximately 125 cells in PBS controls) did it give?
**A.** Its value is “less than 15 cells”.

**Q.** What about the “inhibition of invasion into a collagen matrix” value ([1]; MDA-MB-468, 100 ng/ml peptide with Bioporter, vs PBS controls) of the same substance?
**A.** Its value is “approximately 8 fold”.

**Q.** And the “effect on invasion” value ([1]; MDA-MB-468, compared to PBS treated controls)?
**A.** The value was “inhibits invasion”.

**Q.** With “TAT-PYEKVSAGNGGSSLS ({TAT}-PYEKVSAGNGGSSLS; listed as Homo sapiens) [MEBTAT]” as the substance, how does the “decrease in cell invasiveness / block of invasion” value [2] read?
**A.** The value was 5 fold and 6 fold.

**Q.** What about the “animals with tumor regression” value (MDA-MB-231 cell line [3]; [6]) of the same substance?
**A.** Its value is 1/7.

**Q.** What about the “tumor regression in the regressing animal” value (MDA-MB-231 cell line [3]; [6]) of the same substance?
**A.** The value was 27%.

**Q.** What about the “increase in overall survival time compared to TAT” value (MDA-MB-231 cell line [3]; 20 ug/g body weight i.p.) of the same substance?
**A.** The value was 25%.

**Q.** What about the “animals with tumor regression” value (MDA-MB-231 cell line [3]; [7]) of the same substance?
**A.** The value was 1/7.

**Q.** What about the “tumor regression in the regressing animal” value (MDA-MB-231 cell line [3]; [7]) of the same substance?
**A.** Its value is 7%.

**Q.** And the “toxicity of the peptide treatment” value (MDA-MB-231 cell line [3]; 10 and 20 ug/g body weight i.p., 2 weeks)?
**A.** Its value is “no detectable toxicity”.

**Q.** What about the “tumor regrowth after surgical resection” value (MDA-MB-231 cell line [3]; all 3 groups, monitored 10 days after resection) of the same substance?
**A.** Its value is “no statistically significant difference in growth rates”.

**Q.** And the “decrease in tumor volume compared to TAT” value (MDA-MB-231 cell line [3]; all treatment groups, i.p., end of 2 weeks)?
**A.** Its value is 20%.

**Q.** And the “suppression of invasion over TAT or PBS” value (MDA-MB-231 cells)?
**A.** Its value is 3 fold.

**Q.** What about the β-catenin localization (β-catenin) of the same substance?
**A.** The β-catenin localization was “β-catenin localization at sites of focal adhesion and lamellapodia”.

**Q.** And the toxicity (MDA-MB-231 cell line [4]; 2 weeks)?
**A.** The toxicity was “no detectable toxicity”.

**Q.** What about the “tumor volume reduction in regressing animals” value (MDA-MB-231 cell line [4]; end of 2 weeks, individual mice) of the same substance?
**A.** The value was 7% and 9% and 21%.

**Q.** And the “animals with tumor regression” value (MDA-MB-231 cell line [4]; once daily MTWThF, end of 2 weeks)?
**A.** Its value is 3/8.

**Q.** What about the “visible metastases in diaphragms (animals)” value (MDA-MB-231 cell line [4]; sacrifice at 2 weeks) of the same substance?
**A.** Its value is 4/8.

**Q.** What about the “visible metastases in livers (animals)” value (MDA-MB-231 cell line [4]; sacrifice at 2 weeks) of the same substance?
**A.** The value was 1/8.

**Q.** And the “visible metastases in lungs (animals)” value (MDA-MB-231 cell line [4]; sacrifice at 2 weeks)?
**A.** Its value is 0/8.

**Q.** “TAT-SAGNGGSSLS ({TAT}-SAGNGGSSLS; listed as Homo sapiens) [MBTAT]” was tested. Which suppression of invasion [5] did it give?
**A.** The suppression of invasion was 8 fold.

**Q.** Which increase of invasion [5] does the source give for “TAT-SSTDRSPYEKVSAGNGGSSLSYTNP ({TAT}-SSTDRSPYEKVSAGNGGSSLSYTNP; listed as Homo sapiens) [MTAT1, used for positive controls, reference compound]” here?
**A.** The increase of invasion was 18 fold.
